Experimental findings from ChEMBL document CHEMBL1129834, “A boronated benzamide as melanoma-seeking agent” (Bioorg Med Chem Lett, 1997) are described below.

Molecules are shown by their SMILES.

Data set [1] can be described thus: Compound was evaluated for the biodistribution of tumor-imaging agent in B16 melanoma bearing mice muscle upon intraveneous administration at 2.6 gmol/mice after 3 hour. Format: ADME, organism-based, Muscle tissue. The note with it: mus sp., in vivo, iv.
Data set [2] in a line: Compound was evaluated for the biodistribution of tumor-imaging agent in B16 melanoma bearing mice liver upon intraveneous administration at 2.6 gmol/mice after 1 hour. In kind it is ADME, organism-based. The note with it: mus sp., in vivo, iv.
Data set [3] in a line: Compound was evaluated for the biodistribution of tumor-imaging agent in B16 melanoma bearing mice spleen upon intraveneous administration at 2.6 gmol/mice after 1 hour. In kind it is ADME, organism-based. The note with it: mus sp., in vivo, iv.
Data set [4] in a line: Compound was evaluated for the biodistribution of tumor-imaging agent in B16 melanoma bearing mice liver upon intraveneous administration at 2.6 gmol/mice after 24 hour. The note with it: mus sp., in vivo, iv. In kind it is ADME, organism-based.
Data set [5] in a line: Compound was evaluated for the biodistribution of tumor-imaging agent in B16 melanoma bearing mice uvea upon intraveneous administration at 2.6 gmol/mice after 3 hour. Format: ADME, organism-based, Uveal tract. The note with it: mus sp., in vivo, iv.
Data set [6] can be described thus: Compound was evaluated for the biodistribution of tumor-imaging agent in B16 melanoma bearing mice kidney upon intraveneous administration at 2.6 gmol/mice after 24 hour. In kind it is ADME, organism-based. The note with it: mus sp., in vivo, iv.
Data set [7] in a line: Compound was evaluated for the biodistribution of tumor-imaging agent in B16 melanoma bearing mice brain upon intraveneous administration at 2.6 gmol/mice after 3 hour. In kind it is ADME, organism-based. Conditions: mus sp., in vivo, iv.
Data set [8] can be described thus: Compound was evaluated for the biodistribution of tumor-imaging agent in B16 melanoma bearing mice uvea upon intraveneous administration at 2.6 gmol/mice after 24 hour. Format: ADME, organism-based, Uveal tract. Conditions: mus sp., in vivo, iv.
Data set [9] can be described thus: Compound was evaluated for the biodistribution of tumor-imaging agent in B16 melanoma bearing mice liver upon intraveneous administration at 2.6 gmol/mice after 3 hour. In kind it is ADME, organism-based. Conditions: mus sp., in vivo, iv.
Data set [10] is described as follows: Compound was evaluated for the biodistribution of tumor-imaging agent in B16 melanoma bearing mice muscle upon intraveneous administration at 2.6 gmol/mice after 24 hour. In kind it is ADME, organism-based, Muscle tissue. Conditions: mus sp., in vivo, iv.
Data set [11] can be described thus: Compound was evaluated for the biodistribution of tumor-imaging agent in B16 melanoma bearing mice upon intraveneous administration at 2.6 gmol/mice after 3 hour. In kind it is ADME, organism-based. Conditions: mus sp., in vivo, iv.
Data set [12] in a line: Acute toxicity of compound in OF1 mice. Format: organism-based. Conditions: OF1, mouse, in vivo.
Data set [13] can be described thus: Compound was evaluated for the biodistribution of tumor-imaging agent in B16 melanoma bearing mice muscle upon intraveneous administration at 2.6 gmol/mice after 1 hour. Format: ADME, organism-based, Muscle tissue. Conditions: mus sp., in vivo, iv.
Data set [14] in a line: Compound was evaluated for the biodistribution of tumor-imaging agent in B16 melanoma bearing mice kidney upon intraveneous administration at 2.6 gmol/mice after 3 hour. Format: ADME, organism-based. Conditions: mus sp., in vivo, iv.
Data set [15] in a line: Compound was evaluated for the biodistribution of tumor-imaging agent in B16 melanoma bearing mice kidney upon intraveneous administration at 2.6 gmol/mice after 1 hour. The note with it: mus sp., in vivo, iv. Format: ADME, organism-based.
The nature of data set [16]: Compound was evaluated for the biodistribution of tumor-imaging agent in B16 melanoma bearing mice blood upon intraveneous administration at 2.6 gmol/mice after 1 hour. Conditions: mus sp., in vivo, iv. Format: ADME, organism-based.
A short description of data set [17]: Compound was evaluated for the biodistribution of tumor-imaging agent in B16 melanoma bearing mice lungs upon intraveneous administration at 2.6 gmol/mice after 3 hour. In kind it is ADME, organism-based. Conditions: mus sp., in vivo, iv.
Data set [18] can be described thus: Compound was evaluated for the biodistribution of tumor-imaging agent in B16 melanoma bearing mice lungs upon intraveneous administration at 2.6 gmol/mice after 1 hour. In kind it is ADME, organism-based. The note with it: mus sp., in vivo, iv.
Data set [19] can be described thus: Compound was evaluated for the biodistribution of tumor-imaging agent in B16 melanoma bearing mice brain upon intraveneous administration at 2.6 gmol/mice after 1 hour. The note with it: mus sp., in vivo, iv. In kind it is ADME, organism-based.
Data set [20] is described as follows: Compound was evaluated for the biodistribution of tumor-imaging agent in B16 melanoma bearing mice upon intraveneous administration at 2.6 gmol/mice after 24 hour. Format: ADME, organism-based. Conditions: mus sp., in vivo, iv.
A short description of data set [21]: Partition coefficient (logP). In kind it is physicochemical. The note with it: octanol/water.
Data set [22] in a line: Compound was evaluated for the biodistribution of tumor-imaging agent in B16 melanoma bearing mice spleen upon intraveneous administration at 2.6 gmol/mice after 3 hour. Format: ADME, organism-based. Conditions: mus sp., in vivo, iv.
Data set [23] can be described thus: Compound was evaluated for the biodistribution of tumor-imaging agent in B16 melanoma bearing mice upon intraveneous administration at 2.6 gmol/mice after 1 hour. Format: ADME, organism-based. Conditions: mus sp., in vivo, iv.
The nature of data set [24]: Compound was evaluated for the biodistribution of tumor-imaging agent in B16 melanoma bearing mice blood upon intraveneous administration at 2.6 gmol/mice after 3 hour. In kind it is ADME, organism-based. Conditions: mus sp., in vivo, iv.

As usually defined, the LD50 is the dose at which mortality reaches 50%. A high value points to a less toxic substance. What is called logP is a log measure of how a compound divides between an organic and an aqueous phase. Read a low logP as a more hydrophilic compound. Regarding `CCN(CC)CCNC(=O)c1ccc(B2OCCCO2)cc1`, the Injected dose/g came to 1.96% in data set [1]; 5.11% in [2]; 2.61% in [3]; 0.22% in data set [4]; 2.78% in [5]; 0.13% in data set [6]. The Injected dose/g in data set [7] was 0.18%; in [8], 0.84%; in data set [9], 4.76%; in data set [10] it was 0.04%; in [11], 2.89%; in data set [13], 2.95%. The Injected dose/g in data set [14] is 3.38%; in data set [15], 4.88%; in data set [16] it was 2.53%; in data set [17], 1.24%; in [18], 1.91%; in [19] it was 0.19%. The Injected dose/g in data set [20] is listed as 0.52%; in data set [22], 1.53%; in data set [23], 3.26%; in data set [24], 0.97%. In data set [12], this compound gave a 50% lethal dose (LD50) of 1860 µmol/kg. The log partition coefficient (logP) in data set [21] was -1.
